Assay results taken from paper PMC11356571, “The Comparative Metabolism of a Novel Hepatocellular Carcinoma Therapeutic Agent, 2,3-Diamino-N-(4-(benzo[d]thiazol-2-yl)phenyl)propanamide, in Human and Animal Hepatocytes” (Metabolites, 2024).

Columns and labels:
CES1c = target: T1, CES1c (Homo sapiens, UniProt P23141); test: Incubation with human recombinant CES1c; type: in vitro ADME; details: 60 min at 37 °C, ETN101 10 μM or M1 1 μM
T1 construct: purchased Corning Life Sciences (Woburn, MA, USA)
T1 sequence (P23141 18-566 isoform P23141-3 limits assumed): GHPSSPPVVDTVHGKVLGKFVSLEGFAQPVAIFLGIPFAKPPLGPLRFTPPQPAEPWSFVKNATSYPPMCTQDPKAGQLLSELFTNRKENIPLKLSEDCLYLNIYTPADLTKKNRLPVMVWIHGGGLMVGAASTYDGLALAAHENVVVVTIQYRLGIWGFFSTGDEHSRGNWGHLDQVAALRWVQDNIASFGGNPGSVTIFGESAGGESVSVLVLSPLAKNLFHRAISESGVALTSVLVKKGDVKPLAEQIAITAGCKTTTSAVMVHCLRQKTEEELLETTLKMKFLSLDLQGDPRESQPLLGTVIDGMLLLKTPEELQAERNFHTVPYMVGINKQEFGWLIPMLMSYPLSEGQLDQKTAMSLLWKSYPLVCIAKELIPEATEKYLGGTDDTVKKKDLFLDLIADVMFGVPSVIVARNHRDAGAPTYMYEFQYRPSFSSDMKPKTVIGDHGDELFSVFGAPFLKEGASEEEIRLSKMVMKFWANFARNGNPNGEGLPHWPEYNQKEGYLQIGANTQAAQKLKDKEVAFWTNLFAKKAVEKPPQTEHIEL
Experimental: To screen for CES enzymes responsible for the hydrolysis of ETN101 or M1, 50 μL of reaction mixtures containing human cDNA-expressed CES enzymes (CES1b, CES1c, and CES2) at the concentration of 1 mg/mL, 10 μM ETN101, or 1 μM M1 in 0.1 M potassium phosphate buffer were incubated at 37 °C for 0 min or 60 min in triplicate. The reactions were quenched by adding 50 μL of ice-cold acetonitrile containing the internal standard (camptothecin, 10 μg/mL). Following centrifugation at 13,000 rpm for 5 min, a 2 μL aliquot of the supernatant was injected into the LC-MS/MS system. The reliability of the analysis was confirmed by incorporating three different levels of quality control samples at the beginning and end of each analytical batch.
(§1) For enzyme characterization, an Agilent 6460 triple quadrupole mass spectrometer coupled with a 1260 HPLC system (Agilent Technologies, Santa Clara, CA, USA) and a Kinetex Halo® C18 column (2.7 μm, 2.1 × 50 mm, Advanced Material Technology, Wilmington, DE, USA) were used for chromatographic separation. The mobile phases comprised 0.1% (v/v) formic acid in water (mobile phase A) and 0.1% formic acid (v/v) in acetonitrile (mobile phase B). […] ETN101, M1, and M2 were detected via MRM using ESI in the positive mode. […]

CYP2A6 = target: T2, CYP2A6 (Homo sapiens, UniProt P11509); test: Incubation with human cDNA-expressed CYP2A6; type: in vitro ADME; details: CYP2A6, 30 min at 37 °C with NADPH; ETN101 10 μM or M1 1 μM
T2 construct: purchased Corning Life Sciences (Woburn, MA, USA)
T2 sequence (P11509 1-494): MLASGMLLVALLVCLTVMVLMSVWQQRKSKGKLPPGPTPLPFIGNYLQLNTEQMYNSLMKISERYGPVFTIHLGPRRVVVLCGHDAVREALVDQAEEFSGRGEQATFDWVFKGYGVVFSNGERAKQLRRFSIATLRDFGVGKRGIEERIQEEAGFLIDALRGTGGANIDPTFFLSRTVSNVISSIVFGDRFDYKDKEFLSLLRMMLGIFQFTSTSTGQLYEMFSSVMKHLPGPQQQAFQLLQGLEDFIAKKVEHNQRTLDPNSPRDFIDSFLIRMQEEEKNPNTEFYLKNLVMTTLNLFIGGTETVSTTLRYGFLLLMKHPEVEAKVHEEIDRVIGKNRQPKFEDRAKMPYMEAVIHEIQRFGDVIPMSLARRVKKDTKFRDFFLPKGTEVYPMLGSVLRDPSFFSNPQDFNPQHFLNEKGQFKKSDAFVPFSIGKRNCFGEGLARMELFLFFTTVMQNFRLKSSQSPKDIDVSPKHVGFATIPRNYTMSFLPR
Experimental: ETN101 or M1 was incubated with nine human cDNA-expressed CYP enzymes (1A2, 2A6, 2B6, 2C8, 2C9, 2C19, 2D6, 2E1, and 3A4) to identify the CYPs involved in the metabolism of ETN101. Based on the preliminary study, the incubation conditions were determined as follows: Briefly, reaction mixtures of 50 μL containing ETN101 (final concentration: 10 μM) or M1 (final concentration: 1 μM), and CYPs (final amount: 5 pmol for CYP1A2, 2A6, 2C8, 2C9, 2C19, 2D6, and 3A4; 10 pmol for CYP2B6 and 2E1) were prepared in 0.1 M potassium phosphate buffer. The reaction was initiated by adding 50 μL of NADPH- regenerating system; the mixtures were incubated for 0 min or 30 min at 37 °C in triplicate. Reactions were terminated by the addition of 100 μL of ice-cold acetonitrile containing the IS (camptothecin, 200 ng/mL). Samples were centrifuged at 13,000 rpm for 5 min at 4 °C. An aliquot of 2 μL supernatant was injected in LC–MS/MS system.
as §1, with “separation.” for “separation. The mobile phases comprised 0.1% (v/v) formic acid in water (mobile phase A) and 0.1% formic acid (v/v) in acetonitrile (mobile phase B).”

Row | SMILES | Percentage remaining (CES1c) [%] | Percentage remaining (CYP2A6) [%]
1 | NCC(N)C(=O)Nc1ccc(-c2nc3ccccc3s2)cc1 (stereo not shown) [ETN101, 2,3-diamino-N-(4-(benzo[d]thiazol-2-yl)phenyl)propanamide] | 107.3 | 115.6
2 | Nc1ccc(-c2nc3ccccc3s2)cc1 [M1, 2-(4-aminophenyl)benzothiazole] | 122.7 | 105.9
